Patent US4959460A, “3'-deamino-3'-(2"-substituted-4"-morpholino)-anthracycline compounds” (priority 1988, dated 1990)
Values after ≈ are worked out from the molar mass of the structure shown.

What was measured:
[1] = test system: P388 mouse leukemia cells; assay: Anti-proliferative activity against cultivated P388 mouse leukemia cells; type: cell-based; details: P388 cells 5×10^4 cells/ml, RPMI 1640, 10% fetal bovine serum, 37° C., read-out: 50% proliferation-inhibitory concentration (IC50)
Protocol: (1) Anti-proliferative activity against cultivated P388 mouse leukemia cells:
More specifically, a medium RPMI 1640 (Rosewell Park Memorial Institute medium 1640) containing a given amount of the 3'-deamino-3'-(2"-substituted-4"-morpholino) anthracycline compound and 10% fetal bovine serum was inoculated with cultivated P388 5×10^4 cells/ml. Incubation was carried out at 37° C. in a CO2 incubator, and the number of the cells in each medium was then counted to determine 50% proliferation-inhibitory concentration (IC50, ng/ml) relative to the control (no test compounds added).

[2] = test system: P388 leukemia; assay: Antitumor activity against P388 leukemia intraperitoneally transplanted into CDF2 mice; type: in vivo; details: for T/C: control = 100
Protocol: The effects of the test anthracycline compounds are shown below in terms of T/C (%), the survival days of the control mice to which physiological saline solutions was administered being specified as 100.

[3] = 16 mg/kg i.v., administered only day 1
[4] = 0.125 mg/kg i.v., day 1 and day 5
[5] = 0.25 mg/kg i.v., day 1 and day 5
[6] = 0.5 mg/kg i.v., day 1 and day 5
[7] = 2 mg/kg i.v., administered only day 1
[8] = 0.29 mg/kg i.v., day 1 and day 5
[9] = 0.44 mg/kg i.v., day 1 and day 5
[10] = 0.66 mg/kg i.v., day 1 and day 5
[11] = 0.99 mg/kg i.v., day 1 and day 5
[12] = 1.48 mg/kg i.v., day 1 and day 5
[13] = 2.22 mg/kg i.v., day 1 and day 5
[14] = 3.33 mg/kg i.v., day 1 and day 5
[15] = 5.00 mg/kg i.v., day 1 and day 5
[16] = 1 mg/kg i.v., administered only day 1
[17] = 4 mg/kg i.v., administered only day 1

`CC[C@@]1(O)C[C@H](O[C@H]2C[C@H](N3CCO[C@H](CO)C3)[C@H](O)[C@H](C)O2)c2c(O)c3c(c(O)c2[C@H]1O)C(=O)c1cccc(O)c1C3=O` [3'-Deamino-3'-[(2"S) -2"-hydroxymethyl-4"-morpholino]-13-deoxo-10-hydroxycarminomycin] showed an IC50 [1] of 0.02 mg/L (≈ 0.0325 µM).

Compound `CC[C@@]1(O)C[C@H](O[C@H]2C[C@H](N3CCO[C@H](CCl)C3)[C@H](O)[C@H](C)O2)c2c(O)c3c(c(O)c2[C@H]1O)C(=O)c1cccc(O)c1C3=O` [3'-Deamino-3'-[(2"S)-2"-chloromethyl-4"-morpholino]-13-deoxo-10-hydroxycarminomycin] has an IC50 [1] of 0.036 mg/L (≈ 0.0568 µM).

In the case of `CC[C@@]1(O)C[C@H](O[C@H]2C[C@H](N3CCO[C@H](NC(=O)C(F)(F)F)C3)[C@H](O)[C@H](C)O2)c2c(O)c3c(c(O)c2[C@H]1O)C(=O)c1cccc(O)c1C3=O` [3'-Deamino-3'-[(2"S)-2"-trifluoroacetamido-4"-morpholino]-13-deoxo-10-hydroxycarminomycin], the “Number of cured mice/Number of test mice” value ([2]; 2 mg/kg i.v., day 1 and day 5) is reported as 0/6, the T/C ([2]; 2 mg/kg i.v., day 1 and day 5) is reported as 136% and the “Number of cured mice/Number of test mice” value ([2]; 4 mg/kg i.v., day 1 and day 5) is reported as 0/6. The T/C ([2]; 4 mg/kg i.v., day 1 and day 5) was 181%, the “Number of cured mice/Number of test mice” value ([2]; 8 mg/kg i.v., day 1 and day 5) was 0/6 and the T/C ([2]; 8 mg/kg i.v., day 1 and day 5) was 229%. For the same compound, the “Number of cured mice/Number of test mice” value [2, 3] was 0/6, the T/C [2, 3] was 263% and the IC50 [1] was 0.052 mg/L (≈ 0.0746 µM).

With `CC[C@@]1(O)C[C@H](O[C@H]2C[C@H](N3CCO[C@@H](OC)C3)[C@H](O)[C@H](C)O2)c2c(O)c3c(c(O)c2[C@H]1O)C(=O)c1cccc(O)c1C3=O` [3'-Deamino-3'-[(2"R)-2"-methoxy-4"-morpholino]-13-deoxo-10-hydroxycarminomycin] the “Number of cured mice/Number of test mice” value [2, 4] was 0/6, the T/C [2, 4] was 119% and the “Number of cured mice/Number of test mice” value [2, 5] was 0/6. The T/C [2, 5] was 149%, the “Number of cured mice/Number of test mice” value [2, 6] was 0/6 and the T/C [2, 6] was 172%. For the same compound, the “Number of cured mice/Number of test mice” value ([2]; 1 mg/kg i.v., day 1 and day 5) was 0/6, the T/C ([2]; 1 mg/kg i.v., day 1 and day 5) was 181% and the “Number of cured mice/Number of test mice” value [2, 7] was 0/6. For the same compound, the T/C [2, 7] was 36% and the IC50 [1] was 0.009 mg/L (≈ 0.0146 µM).

With `CC[C@@]1(O)C[C@H](O[C@H]2C[C@H](N3CCO[C@H](NC(C)=O)C3)[C@H](O)[C@H](C)O2)c2c(O)c3c(c(O)c2[C@H]1O)C(=O)c1cccc(O)c1C3=O` [3'-Deamino-3'-[(2"S)-2"-acetamido-4"-morpholino]-13-deoxo-10-hydroxycarminomycin] the “Number of cured mice/Number of test mice” value ([2]; 2 mg/kg i.v., day 1 and day 5) was 0/6, the T/C ([2]; 2 mg/kg i.v., day 1 and day 5) was 124% and the “Number of cured mice/Number of test mice” value ([2]; 4 mg/kg i.v., day 1 and day 5) was 0/6. For the same compound, the T/C ([2]; 4 mg/kg i.v., day 1 and day 5) was 124%, the “Number of cured mice/Number of test mice” value ([2]; 8 mg/kg i.v., day 1 and day 5) was 0/6 and the T/C ([2]; 8 mg/kg i.v., day 1 and day 5) was 146%. The “Number of cured mice/Number of test mice” value ([2]; 16 mg/kg i.v., day 1 and day 5) was 0/6, the T/C ([2]; 16 mg/kg i.v., day 1 and day 5) was 340% and the IC50 [1] was 0.083 mg/L (≈ 0.129 µM).

In the case of `CC[C@@]1(O)C[C@H](O[C@H]2C[C@H](N3CCO[C@@H](N=[N+]=[N-])C3)[C@H](O)[C@H](C)O2)c2c(O)c3c(c(O)c2[C@H]1O)C(=O)c1cccc(O)c1C3=O` [3'-Deamino-3'-[(2"R)-2"-azido-4"-morpholino]-13-deoxo-10-hydroxycarminomycin], the “Number of cured mice/Number of test mice” value [2, 5] is reported as 0/6, the T/C [2, 5] is reported as 115% and the “Number of cured mice/Number of test mice” value [2, 6] is reported as 0/6. For the same compound, the T/C [2, 6] was 163%, the “Number of cured mice/Number of test mice” value ([2]; 1 mg/kg i.v., day 1 and day 5) was 0/6 and the T/C ([2]; 1 mg/kg i.v., day 1 and day 5) was 196%. The “Number of cured mice/Number of test mice” value ([2]; 2 mg/kg i.v., day 1 and day 5) was 0/6, the T/C ([2]; 2 mg/kg i.v., day 1 and day 5) was 294% and the “Number of cured mice/Number of test mice” value ([2]; 4 mg/kg i.v., day 1 and day 5) was 0/6. It also gave a T/C ([2]; 4 mg/kg i.v., day 1 and day 5) of 124% and an IC50 [1] of 0.0189 mg/L (≈ 0.0302 µM).

`CC[C@@]1(O)C[C@H](O[C@H]2C[C@H](N3CCO[C@@H](NC(=O)C(F)(F)F)C3)[C@H](O)[C@H](C)O2)c2c(O)c3c(c(O)c2[C@H]1O)C(=O)c1cccc(O)c1C3=O` [3'-Deamino-3'-[(2"R)-2"-trifluoroacetamido-4"-morpholino]-13-deoxo-10-hydroxycarminomycin] was tested, and the “Number of cured mice/Number of test mice” value ([2]; 2 mg/kg i.v., day 1 and day 5) was 0/6, the T/C ([2]; 2 mg/kg i.v., day 1 and day 5) was 120% and the “Number of cured mice/Number of test mice” value ([2]; 4 mg/kg i.v., day 1 and day 5) was 0/6. The T/C ([2]; 4 mg/kg i.v., day 1 and day 5) was 150%, the “Number of cured mice/Number of test mice” value ([2]; 8 mg/kg i.v., day 1 and day 5) was 0/6 and the T/C ([2]; 8 mg/kg i.v., day 1 and day 5) was 165%. The “Number of cured mice/Number of test mice” value ([2]; 16 mg/kg i.v., day 1 and day 5) was 2/6, the T/C ([2]; 16 mg/kg i.v., day 1 and day 5) was 319% and the IC50 [1] was 0.0225 mg/L (≈ 0.0323 µM).

In the case of `CC[C@@]1(O)C[C@H](O[C@H]2C[C@H](N3CCOCC3)[C@H](O)[C@H](C)O2)c2c(O)c3c(c(O)c2[C@H]1O)C(=O)c1cccc(O)c1C3=O` [3'Deamino-3'-morpholino-R20X2, reference compound], the “Number of cured mice/Number of test mice” value [2, 8] is reported as 0/6, the T/C [2, 8] is reported as 110% and the “Number of cured mice/Number of test mice” value [2, 9] is reported as 0/6. The T/C [2, 9] was 143%, the “Number of cured mice/Number of test mice” value [2, 10] was 0/6 and the T/C [2, 10] was 162%. The “Number of cured mice/Number of test mice” value [2, 11] was 0/6, the T/C [2, 11] was 173% and the “Number of cured mice/Number of test mice” value [2, 12] was 0/6. For the same compound, the T/C [2, 12] was 189%, the “Number of cured mice/Number of test mice” value [2, 13] was 0/6 and the T/C [2, 13] was 189%. For the same compound, the “Number of cured mice/Number of test mice” value [2, 14] was 0/6, the T/C [2, 14] was 240% and the “Number of cured mice/Number of test mice” value [2, 15] was 0/6. The T/C [2, 15] was 135%.

In the case of `CC[C@@]1(O)C[C@H](O[C@H]2C[C@H](N3CCO[C@H](OC)C3)[C@H](O)[C@H](C)O2)c2c(O)c3c(c(O)c2[C@H]1O)C(=O)c1cccc(O)c1C3=O` [3'-Deamino-3'-[(2"S)-2"-methoxy-4"-morpholino]-13-deoxo-10-hydroxycarminomycin], the “Number of cured mice/Number of test mice” value [2, 4] is reported as 0/6, the T/C [2, 4] is reported as 103% and the “Number of cured mice/Number of test mice” value [2, 5] is reported as 0/6. For the same compound, the T/C [2, 5] was 182%, the “Number of cured mice/Number of test mice” value [2, 6] was 0/6 and the T/C [2, 6] was 196%. The “Number of cured mice/Number of test mice” value [2, 16] was 0/6, the T/C [2, 16] was 182% and the IC50 [1] was 0.018 mg/L (≈ 0.0292 µM).

For `CC[C@@]1(O)C[C@H](O[C@H]2C[C@H](N3CCO[C@H](C)C3)[C@H](O)[C@H](C)O2)c2c(O)c3c(c(O)c2[C@H]1O)C(=O)c1cccc(O)c1C3=O` [3'-Deamino-3'-[(2"R)-2"-methyl-4"-morpholino]-13-deoxo-10-hydroxycarminomycin], the IC50 [1] was 0.034 mg/L (≈ 0.0567 µM).

`CC[C@@]1(O)C[C@H](O[C@H]2C[C@H](N3CCO[C@H](N=[N+]=[N-])C3)[C@H](O)[C@H](C)O2)c2c(O)c3c(c(O)c2[C@H]1O)C(=O)c1cccc(O)c1C3=O` [3'-Deamino-3'-[(2"S)-2"-azido-4"-morpholino]-13-deoxo-10-hydroxycarminomycin] was tested, and the “Number of cured mice/Number of test mice” value [2, 6] was 0/6, the T/C [2, 6] was 122% and the “Number of cured mice/Number of test mice” value ([2]; 1 mg/kg i.v., day 1 and day 5) was 0/6. The T/C ([2]; 1 mg/kg i.v., day 1 and day 5) was 163%, the “Number of cured mice/Number of test mice” value ([2]; 2 mg/kg i.v., day 1 and day 5) was 0/6 and the T/C ([2]; 2 mg/kg i.v., day 1 and day 5) was 231%. For the same compound, the “Number of cured mice/Number of test mice” value [2, 17] was 1/6, the T/C [2, 17] was 355% and the IC50 [1] was 0.024 mg/L (≈ 0.0383 µM).
